Test [1] concerns the target T1, Mouse GCGR (Mus musculus, UniProt Q61606).
T1 construct: a plasmid encoding either the glucagon receptor or the GLP-1 receptor from the relevant species; expressed in transfected cells
In words: Receptor binding, SPA competitive binding assay. To be noted: SPA competitive binding on BHK cell membranes, [125I]-glucagon tracer, 1% species specific plasma, 2 h 30°C; value (95% CI). Here is the method:
(§1) The binding assay was performed on cell membranes in the presence of 1% (v/v) species-specific heparin-treated pooled plasma (Bioreclamation IVT, Westbury, NY) diluted in assay buffer (50 mM HEPES supplemented with 5 mM EGTA, 5 mM MgCl2, and 0.005% (v/v) Tween 20, pH7.4). […] Cells stably expressing an individual receptor of interest were grown at 5% CO2, 37°C in DMEM (supplemented with 10% FCS, 0.5 mg/ml G418 and 0.3 mg/ml hygromycin). Membrane preparations were made from cells harvested at approximately 80% confluence, washed and homogenized in 20 mM HEPES with 0.1 mM EDTA, pH 7.4. Protein concentration was determined, and the membranes were stored at -80°C until use. The membrane binding assay was performed in a 96-well OptiPlate (PerkinElmer) in a total volume of 200 μl. Test compounds were dissolved in 80% DMSO and further diluted in assay buffer. 50 μl of diluted plasma was added to the assay plate wells followed by addition of test compounds (25 μl), cell membranes (50 μl, 0.06 mg/ml), SPA beads (20 mg/ml in assay buffer) and radioligand (60,000 cpm/well, corresponding to 0.06 nM; 2200 Ci/mmol. Each assay plate was incubated for 2 h at 30°C, centrifuged at 1500 rpm for 10 minutes and counted in a TopCount NXT instrument (PerkinElmer).
(§2) For the receptor binding assays, logIC50 values were calculated using non-linear regression analysis. The error estimation was reported as the 95% confidence interval. […] The calculations were performed in GraphPad Prism 6.4 (GraphPad, San Diego, CA) and error estimation was expressed as the 95% confidence interval. […] Averages, error estimation, ratios and plasma shifts were all calculated on logIC50 or logEC50 values and transformed to the anti-log values for reporting purposes.

Test [2] has as its target T2, Rat GCGR (Rattus norvegicus, UniProt P30082).
T2 construct: a plasmid encoding either the glucagon receptor or the GLP-1 receptor from the relevant species; expressed in transfected cells
In words: Receptor potency, CRE-luciferase functional assay in BHK cells. To be noted: Rat receptors, whole BHK cells, 0% plasma, 3 h 37°C, value (95% CI). The format is cell-based. The procedure:
as §1
Functional assays were performed on whole cells in the absence or presence of 100% species-specific heparin-treated pooled plasma (Bioreclamation IVT). […] The cells were cultured with DMEM (supplemented with GlutaMAX, 10% FBS, 0.5 mg/ml G418 and 0.3 mg/ml hygromycin) at 5% CO2 and 37°C. At approximately 80–90% confluence, cells were washed with PBS and harvested with Versene (Life Technologies, Carlsbad, CA). The cells were counted and plated into 96-well microtiter plates coated with poly-D-Lys (Corning BioCoat) with 5,000 cells/well and thereafter incubated overnight in growth media. The next day the media was changed to assay buffer (DMEM without phenol red, supplemented with GlutaMAX, 10 mM HEPES, 1% ovalbumin and 0.1% Pluronic F-68) or to 100% plasma. In the absence of plasma, compounds were diluted in assay buffer. In assays tested with plasma, compounds were diluted in pure plasma. Buffer was removed from the plates and 50 μl of test compound dilutions was added to the plates followed by 50 μl of plasma or the same buffer used for compound dilution. The assay plates were incubated for 3 h in a 5% CO2 incubator at 37°C. The plates were then transferred to room temperature for 15 min and 100 μl Steadylite Plus reagent (PerkinElmer) was added to each well. The plates were shaken for 30 min at room temperature while protected from light after which luminescence was measured.
as §2

For test [3], the system named is DIO rats. The test is described as follows: Subchronic effect on body weight, body composition and food intake in DIO rats. To be noted: three weeks; for Weight loss: 3 nmol/kg each compound s.c. once daily; for Cumulative food intake: 3 nmol/kg s.c. once daily. The format is in vivo, rat. From the text: Male C57Bl/6J mice were purchased from Jackson Lab (Bar Harbour, ME) or Taconic, (Denmark). Male Sprague Dawley rats were purchased from Taconic (Denmark). Lean animals were fed regular chow diet (Altromin 1324, Brogaarden, Denmark). Obese animals were fed a high-fat diet, 45% kcal from fat (D12492, Research Diets, New Brunswick, NJ) from the age of 4–6 weeks in order to obtain a diet induced obese (DIO) phenotype. Animals were housed under temperature and humidity-controlled conditions in a 12:12 hr light:dark cycle (lights on at 6 a.m.). Rats were housed three per cage during high fat feeding and were single housed five weeks prior to study. Mice were single housed, two per cage, with a partitioning wall where possible. All animals had ad libitum access to diet and water, except when fasted prior to experimental procedures. Animals were acclimatized to study conditions (energy expenditure cages, daily mock handling etc) at least one week prior to first dose. […] At the time of study, animals were 20–30 weeks old with a body weight of 45–50 g (DIO mice) or approximately 600 g (DIO rats). […] Oral glucose tolerance was evaluated on study day 15, 5 h post-dosing (at Cmax). Animals were fasted for 5 h prior to oral administration of glucose (3 g/kg). […] Conscious animals were MR-scanned prior to initiation of treatment and at the end of the treatment period.

The subject of test [4] is DIO mice. The test is described as follows: Subchronic effect on energy expenditure in DIO mice (indirect calorimetry). The format is in vivo, mouse. Particulars: 5 nmol/kg s.c. once daily, eleven days. The procedure: DIO mice (n = 8) were treated once daily s.c. in the morning for eleven days with vehicle or 5 nmol/kg NN1177. Forty-eight hours prior to first dose and during the study, the metabolic phenotype was determined using the PhenoMaster system (TSE Systems GmbH, Bad Homburg, Germany). During this period, air flow, temperature, oxygen- and carbon dioxide content, oxygen uptake (VO2) and carbon dioxide production (VCO2) were simultaneously measured using standard indirect calorimetry analysis. The respiratory exchange rate (RER) and energy expenditure (EE) were calculated automatically from VO2 and VCO2. Furthermore, voluntary activity in x-y dimensions was determined. All parameters were measured simultaneously for one min per cage in two cages at a time, resulting in a time resolution of data points of 9 min. Statistical analysis was performed as one-way ANOVA followed by Dunnets post-hoc test. Statistics on body weight was performed as one-way ANOVA at the last day of treatment. Statistics on energy expenditure data was calculated using two-way ANOVA with repeated measures with Bonferroni’s post hoc test. Statistical analysis was performed on average light-dark period values (only raw data, no mean data is presented). p<0.05 was considered statistically significant. GraphPad Prism 6.4 (GraphPad) was used for all in vivo data visualization as well as statistical analyses.

Test [5] has as its system DIO mice. The test is described as follows: Acute effect on glucose tolerance in DIO mice (IPGTT). The format is in vivo, mouse. To be noted: 3 or 5 nmol/kg s.c., at Cmax and at Cmin, p<0.001. The procedure:
All animals received a single s.c. injection of compound at 4 pm, 21 h prior to administration of glucose (for all treated animals to have equally affected food intake in the dark period prior to the intraperitoneal glucose tolerance test (IPGTT)). […] Animals were fasted for 5–6 h prior to intraperitoneal (i.p.) injection of 2 g/kg glucose.

Numbered stars: 1 amine (or outer) side, 2 acyl side, 3 side chain; on linkers, the order of the positions; unused ones are H or OH. Square brackets hold non-standard residues; d marks the D form. Side chains are listed from the residue outwards. Peptide text beside a SMILES is read from it. * marks the point of attachment. C18 diacid = O=C(O)CCCCCCCCCCCCCCCCC(=O)*; γGlu = O=C(O)[C@H](CCC(=O)[*:2])N[*:1]; Desaminohistidyl = O=C(CCc1c[nH]cn1)*; AEEA = NCCOCCOCC(=O)O; Aib = CC(C)(N)C(=O)O

T1 sequence (Q61606 27-485): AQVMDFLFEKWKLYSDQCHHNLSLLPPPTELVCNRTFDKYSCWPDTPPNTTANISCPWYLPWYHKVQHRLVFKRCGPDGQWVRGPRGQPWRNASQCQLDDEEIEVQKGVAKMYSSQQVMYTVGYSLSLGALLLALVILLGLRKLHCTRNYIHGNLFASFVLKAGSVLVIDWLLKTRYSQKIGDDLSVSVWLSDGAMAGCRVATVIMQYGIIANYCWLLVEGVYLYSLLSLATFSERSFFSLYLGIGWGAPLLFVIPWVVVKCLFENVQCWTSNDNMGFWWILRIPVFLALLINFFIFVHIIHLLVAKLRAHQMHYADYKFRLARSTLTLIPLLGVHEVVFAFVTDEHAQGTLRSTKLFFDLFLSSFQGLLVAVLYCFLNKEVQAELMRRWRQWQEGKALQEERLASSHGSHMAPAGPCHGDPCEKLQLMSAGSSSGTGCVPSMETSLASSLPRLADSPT
T2 sequence (P30082 27-485): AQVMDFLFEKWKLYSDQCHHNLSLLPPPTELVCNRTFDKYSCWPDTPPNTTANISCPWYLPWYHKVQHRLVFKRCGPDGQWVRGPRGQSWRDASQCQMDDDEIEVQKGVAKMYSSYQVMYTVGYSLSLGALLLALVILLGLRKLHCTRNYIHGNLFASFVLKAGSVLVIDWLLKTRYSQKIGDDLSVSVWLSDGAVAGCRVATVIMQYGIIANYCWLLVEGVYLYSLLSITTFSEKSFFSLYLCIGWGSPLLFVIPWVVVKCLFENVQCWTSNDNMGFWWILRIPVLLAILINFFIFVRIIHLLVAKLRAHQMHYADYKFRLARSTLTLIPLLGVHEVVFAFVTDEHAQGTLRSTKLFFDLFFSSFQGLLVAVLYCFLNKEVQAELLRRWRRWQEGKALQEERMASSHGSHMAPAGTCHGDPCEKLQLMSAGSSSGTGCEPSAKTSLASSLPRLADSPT

For `CC(C)C[C@H](NC(=O)[C@H](Cc1ccc(O)cc1)NC(=O)[C@H](CCCCN)NC(=O)[C@H](CO)NC(=O)[C@H](CC(C)C)NC(=O)[C@H](CC(=O)O)NC(=O)[C@H](CO)NC(=O)[C@@H](NC(=O)[C@H](Cc1ccccc1)NC(=O)[C@@H](NC(=O)CNC(=O)[C@H](CCC(N)=O)NC(=O)C(C)(C)NC(=O)[C@@H](N)Cc1c[nH]cn1)[C@@H](C)O)[C@@H](C)O)C(=O)N[C@@H](CCC(=O)O)C(=O)N[C@@H](CO)C(=O)N[C@@H](CCCCN)C(=O)N[C@@H](CCCNC(=N)N)C(=O)N[C@@H](C)C(=O)N[C@@H](CCCNC(=N)N)C(=O)N[C@@H](CCC(=O)O)C(=O)N[C@@H](Cc1ccccc1)C(=O)N[C@H](C(=O)N[C@@H](CCC(N)=O)C(=O)N[C@@H](Cc1c[nH]c2ccccc12)C(=O)N[C@@H](CC(C)C)C(=O)N[C@@H](CC(C)C)C(=O)N[C@@H](CCCCNC(=O)CC[C@H](NC(=O)CC[C@H](NC(=O)[C@H](CO)NC(=O)[C@H](CCC(=O)O)NC(=O)[C@H](CO)NC(=O)CC[C@H](NC(=O)CC[C@H](NC(=O)CCCCCCCCCCCCCCCCC(=O)O)C(=O)O)C(=O)O)C(=O)O)C(=O)O)C(=O)N[C@H](C(N)=O)[C@@H](C)O)C(C)C` [NN1177] (H-H[Aib]QGTFTSDLSKYLESKRAREFVQWLLK([γGlu-γGlu-Ser-Glu-Ser-γGlu-γGlu-C18 diacid])T-NH2), in test [1], the IC50 turned out to be 0.29 nM. In test [2], the EC50 was 0.00183 nM. Further, in test [3], the Weight loss came out at 20% and the Cumulative food intake entry is “equal reduction”. Also, in test [4], the “Body weight loss during treatment period” value is “approximately 30%” and the Physical activity entry is “not affected”. Also, the “Respiratory exchange ratio (RER)” value in test [4] (light and dark period, p<0.001) is on record as “decreased significantly”. For the same compound, the “Energy expenditure per body weight” value in test [4] (light and dark period, p<0.01 day 3, p<0.001 day 5–11) is “increased”. The “Glucose tolerance (IPGTT) vs vehicle” value in test [5] (2 g/kg glucose i.p.) is given as “improved”. Also, in test [5], the “Basal blood glucose vs vehicle” value is listed as “improved”.

Take `CC[C@H](C)[C@H](NC(=O)[C@H](Cc1ccccc1)NC(=O)[C@H](CCC(=O)O)NC(=O)[C@H](CCCNC(=N)N)NC(=O)[C@H](C)NC(=O)[C@H](C)NC(=O)[C@H](CCC(N)=O)NC(=O)[C@H](CCC(=O)O)NC(=O)[C@H](CCC(=O)O)NC(=O)[C@H](CC(C)C)NC(=O)[C@H](Cc1ccc(O)cc1)NC(=O)[C@H](CCCCN)NC(=O)[C@H](CO)NC(=O)[C@@H](NC(=O)[C@H](CC(=O)O)NC(=O)[C@H](CO)NC(=O)[C@@H](NC(=O)[C@H](Cc1ccccc1)NC(=O)[C@@H](NC(=O)CNC(=O)[C@H](Cc1c[nH]cn1)NC(=O)C(C)(C)NC(=O)CCc1c[nH]cn1)[C@@H](C)O)[C@@H](C)O)C(C)C)C(=O)N[C@@H](C)C(=O)N[C@@H](Cc1c[nH]c2ccccc12)C(=O)N[C@@H](CC(C)C)C(=O)N[C@@H](CC(C)C)C(=O)N[C@@H](CCCCNC(=O)COCCOCCNC(=O)COCCOCCNC(=O)CC[C@H](NC(=O)CC[C@H](NC(=O)CCCCCCCCCCCCCCCCC(=O)O)C(=O)O)C(=O)O)C(=O)N[C@H](C(N)=O)[C@@H](C)O` [NN1359] (Desaminohistidyl-[Aib]HGTFTSDVSKYLEEQAAREFIAWLLK([AEEA-AEEA-γGlu-γGlu-C18 diacid])T-NH2): in test [1], the concentration for half-maximal inhibition (IC50) was 14 nM.

Regarding `CC(C)C[C@H](NC(=O)[C@H](CC(C)C)NC(=O)[C@H](Cc1c[nH]c2ccccc12)NC(=O)[C@H](CCC(N)=O)NC(=O)[C@@H](NC(=O)[C@H](Cc1ccccc1)NC(=O)[C@H](CCC(=O)O)NC(=O)[C@H](CCCNC(=N)N)NC(=O)[C@H](C)NC(=O)[C@H](C)NC(=O)[C@H](CCCNC(=N)N)NC(=O)[C@H](CO)NC(=O)[C@H](CC(=O)O)NC(=O)[C@H](CC(C)C)NC(=O)[C@H](Cc1ccc(O)cc1)NC(=O)[C@H](CCCCN)NC(=O)[C@H](CO)NC(=O)[C@H](CC(C)C)NC(=O)[C@H](CC(=O)O)NC(=O)[C@H](CO)NC(=O)[C@@H](NC(=O)[C@H](Cc1ccccc1)NC(=O)[C@@H](NC(=O)CNC(=O)[C@H](CCC(=O)O)NC(=O)C(C)(C)NC(=O)[C@@H](N)Cc1c[nH]cn1)[C@@H](C)O)[C@@H](C)O)C(C)C)C(=O)N[C@@H](CC(N)=O)C(=O)N[C@@H](CCCCNC(=O)CC[C@H](NC(=O)CC[C@H](NC(=O)COCCOCCNC(=O)COCCOCCNC(=O)CC[C@H](NC(=O)CCCCCCCCCCCCCCCCC(=O)O)C(=O)O)C(=O)O)C(=O)O)C(N)=O` [GLP-1 reference] (H-H[Aib]EGTFTSDLSKYLDSRAAREFVQWLLNK([γGlu-γGlu-AEEA-AEEA-γGlu-C18 diacid])-NH2), in test [2], the EC50 was 35.3 nM. In addition, in test [3], the Weight loss stood at 5% and the Cumulative food intake entry is given as “equal reduction”.

The values are drawn from publication PMC8896685 (PLoS ONE, 2022).
